Tests used:
Assay type in all cases: functional
Rattus norvegicus [1] = test: Cartilage space narrowing was measured radiographically after 42 days initial immunization with type II collagen in rats at a dose of 200 mg/kg
Rattus norvegicus [2] = test: Erosions of tarsal bones measured radiographically after 42 days initial immunization with type II collagen in rats at a dose of 200 mg/kg
Rattus norvegicus [3] = test: Paw diameter measured with a micrometer caliper after 42 days initial immunization with type II collagen in rats at a dose of 200 mg/kg

Row | Structure (SMILES) | Cartilage space (Rattus norvegicus [1]) | Erosions (Rattus norvegicus [2]) | Mean paw diameter (Rattus norvegicus [3]) [mm]
1 | COc1ccc2c(c1)c(CC(=O)O)c(C)n2C(=O)c1ccc(Cl)cc1 [INDOMETHACIN] | 2.94 | 2.94 | 8
2 | CCCCC1C(=O)N(c2ccccc2)N(c2ccccc2)C1=O [PHENYLBUTAZONE] | 2.86 | 3.33 | 8.42
3 | CC(C)(S)[C@@H](N)C(=O)O [PENICILLAMINE] | 2.72 | 2.83 | 8.89
4 | C[C@]12C=CC(=O)C=C1CCC1[C@@H]2[C@@H](O)C[C@@]2(C)[C@H]1CC[C@]2(O)C(=O)CO (single isomer, unassigned) [PREDNISOLONE] | 3.27 | 3.5 | 7.92
